In patent publication US8148425B2, “Pharmaceutical composition containing phloroglucinol and paracetamol” (Promindus (Actions Promotionnelles Dans l'Industrie et le …, priority 2007, dated 2012):
Where “and” joins values, the source holds several entries; their conditions need not be identical. Equal values may be shown once.

Test system: painful spasm caused by intraperitoneal injection of phenylbenzoquinone in mice
Experiment: Siegmund test or Writhing test (phenylbenzoquinone-induced painful spasm)
Type: in vivo, mice (male, Swiss strain)
Conditions: esophageal tube, 30 min before phenylbenzoquinone
Method: During said tests, the antispasmodic and analgesic activity of phloroglucinol, of paracetamol, and of phloroglucinol combined with paracetamol was evaluated using the Siegmund test or “Writhing test”. The principle of this test, which is familiar to those skilled in the art, is briefly summarized hereinafter. The intraperitoneal injection of phenylbenzoquinone in mice causes a painful spasm, which can be reduced with antispasmodic substances (causal medication) and analgesic substances (symptomatic medication).
The test was carried out on batches of 10 male mice, of the Swiss strain, having an average weight of 22 g±2. The spasmodic and painful syndrome caused by the intraperitoneal injection of 0.25 ml of the phenylbenzoquinone solution is characterized by hind limb stretching movements and dorso-abdominal musculature twisting movements, which accounted for a period of time of 30 min, starting from 15 min following the administration of the phenylbenzoquinone.
An antispasmodic and analgesic effect manifests itself through a reduction in the number of spasmodic attacks, which is dependent on the dose. For each test, the substance being studied is administered by means of an esophageal tube, 30 min before the phenylbenzoquinone.
For experimental ease, the following were used: • phloroglucinol Lyoc (lyophilizate), and • effervescent paracetamol (tablet); the two substances being perfectly soluble and miscible.
To test the products administered in isolation (prior art), on the one hand, phloroglucinol lyocs (lyophilized systems) were dissolved in distilled water, and on the other hand, effervescent paracetamol tablets were solubilized in distilled water (the solution obtained has a pH of 5).
To test the pharmaceutical compositions of the invention, such phloroglucinol lyocs (lyophilized systems) and such effervescent paracetamol tablets were dissolved and solubilized together. The solution which contains the two active ingredients itself also has a pH of 5.
Given the metabolism in this animal species, the mouse, which is more accelerated than in humans, those skilled in the art, specialists in pharmacology, most commonly use doses which are multiples of the human dose in order to be able to readily objectivize the results.
The results are expressed as percentage of inhibition of the spasm and of the pain relative to control animals which receive only 20 ml/kg of distilled water.

Row | SMILES | % inhibition of the spasm and of the pain relative to control animals (paracetamol 50 mg/kg, mice (repeated in each of four series)) | % inhibition of the spasm and of the pain relative to control animals (phloroglucinol 40 mg/kg, mice) [%] | % inhibition of the spasm and of the pain relative to control animals (phloroglucinol 80 mg/kg, mice) [%] | % inhibition of the spasm and of the pain relative to control animals (phloroglucinol 100 mg/kg, mice) [%] | % inhibition of the spasm and of the pain relative to control animals (phloroglucinol 120 mg/kg, mice) [%]
1 | CC(=O)Nc1ccc(O)cc1 [Paracetamol, 4-acetylaminophenol] | 40% and 39% and 37% | – | – | – | –
2 | Oc1cc(O)cc(O)c1 [Phloroglucinol, 1,3,5-trihydroxy-benzene] | – | 7 | 21 | 27 | 32
